How the values were obtained:
[1] = Subcutaneous administration of C-peptide formulations in rats: C-peptide in serum; type: in vivo, Sprague-Dawley male rats; conditions: rat, sc, 75 nmole/kg as a common aqueous solution, within 2 h, data not shown, read-out: serum concentration of C-peptide
Experimental: About 1 ml of each sample was transferred to a plastic syringe with a Luer-lok Tip (Becton Dickinson), which then was sealed with a Combi Stopper (Braun). Prior to administration a 23G Microlance (Becton Dickinson) was connected to the syringe. Each syringe was weighed before and after administration to the animal.
Thirty Sprague-Dawley male rats with a body weight of about 300 g were divided into 5 groups of 6 animals to test the uptake of C-peptide in the formulations outlined above. […] The serum obtained by centrifugation was collected and stored at −80° C. until analysis. Determination of C-peptide in serum was performed by an automatic immunoassay system (AutoDELFIA™ C-peptide, Perkin Elmer, Wallac Oy, Turku, Finland), with a detection limit of 0.005 nM and a precision below 5%. To fit into the calibration curve, the samples were diluted prior to analysis 100 times.

[2] = cited from earlier work
[3] = dose injected into a rat; cited from earlier work

level at time molar [1]: < 1 nM
SMILES: CC(C)C[C@H](NC(=O)[C@H](C)NC(=O)[C@H](CC(C)C)NC(=O)[C@@H]1CCCN1C(=O)[C@H](CCC(N)=O)NC(=O)[C@H](CC(C)C)NC(=O)[C@H](CO)NC(=O)CNC(=O)[C@H](C)NC(=O)CNC(=O)[C@@H]1CCCN1C(=O)CNC(=O)CNC(=O)CNC(=O)[C@H](CC(C)C)NC(=O)[C@H](CCC(=O)O)NC(=O)[C@@H](NC(=O)[C@H](CCC(N)=O)NC(=O)CNC(=O)[C@@H](NC(=O)[C@H](CCC(N)=O)NC(=O)[C@H](CC(C)C)NC(=O)[C@H](CC(=O)O)NC(=O)[C@H](CCC(=O)O)NC(=O)[C@H](C)NC(=O)[C@@H](N)CCC(=O)O)C(C)C)C(C)C)C(=O)N[C@@H](CCC(=O)O)C(=O)NCC(=O)N[C@@H](CO)C(=O)N[C@@H](CC(C)C)C(=O)N[C@@H](CCC(N)=O)C(=O)O [C-peptide, proinsulin C-peptide]
in vivo half life circulating in blood [2]: approximately 30 minutes | time within which an injected dose has disappeared entirely from circulation [3]: 2 to 3 h

— US8927489B2, “Sustained release preparation of pro-insulin C-peptide” (Cebix Incorporated, priority 2005, dated 2015)
